# Test results reported in patent US20150143553A1, “Methods And Compositions Comprising A Drosophila Model Of Amyotrophic Lateral Sclerosis” (priority 2013, published 2015).
# Structures can show the parent of a compound that is named as a salt.
# Test system: Drosophila larvae expressing G298S TDP-43 in motor neurons
# Test: Drug screen: rescue of lethality caused by G298S TDP-43 expression in motor neurons (D42 Gal4)
# Type: in vivo
# Conditions: transgene G298S4; 30 μM in fly food
# Description: (§1) […] Larvae expressing TDP-43 (wild type or mutant, as shown) are raised on drug containing food.
# (§2) […] Larvae expressing TDP-43 (wt or mutant) were raised on drug containing food.
# (§3) Using a Drosophila model of ALS based on TDP-43 that recapitulates several aspects of the disease pathophysiology (33, 35), a drug screen aimed at identifying FDA approved compounds with neuroprotective potential in vivo were designed (FIG. 37A). […] This phenotype was used to screen for drug candidates with therapeutic potential as determined by their ability to rescue pupal lethality and produce viable adults with extended wings (FIG. 37A).
# Larvae expressing TDP-43 in motor neurons (D42>TDP-43) were raised on fly food containing different amounts of drug (1, 10 and 25 μM, see Materials and Methods for details) or Dimethyl Sulfoxide (DMSO) as vehicle control (FIG. 37B, C).
# (§4) UAS TDP-43 males were crossed with D42-Gal4 female virgins on fly food containing either DMSO or pioglitazone. For DMSO controls, the same volume of DMSO as the corresponding drug concentration was added. Bromophenol blue was added to a final concentration of approximately 0.02% to ensure homogeneity. Crosses were made on drug food with 3 female virgins and 2 males in each vial, and were maintained at 25° C. unless noted. The parents were discarded after 5-7 days then the vials were screened for adult progeny with straight wings from day 14 to day 25. All adults were screened for TDP-43 expression by visualizing the YFP tag. Total number of pupae was counted on day 25. Percent survival was calculated using the formula (total number of straight-winged adults/total number of pupae)×100. All experiments were performed in triplicate.
row,Molecule,Preliminary rescue result: adults with normal wings
1,c1ccc(-c2ccc(C(c3ccccc3)n3ccnc3)cc2)cc1 (stereo not shown) [Bifonazole],1 Adult Normal Wings Adults

# Same assay, conditions: transgene G298S; 30 μM in fly food
row,Molecule,Preliminary rescue result: adults with normal wings
1,Nc1nc(NC2CC2)c2ncn([C@H]3C=C[C@@H](CO)C3)c2n1 [Abacavir Sulfate],1 Adult Normal Wings Adults
2,CCn1nc(C(=O)O)c(=O)c2cc3c(cc21)OCO3 [Cinoxacin],1 Adult Normal Wings Adults
3,N#CC(c1ccc(Cl)cc1)c1c(Cl)cc(-n2ncc(=O)[nH]c2=O)cc1Cl (stereo not shown) [Diclazuril],1 Adults
4,CN1CCN(c2c(F)cc3c(=O)c(C(=O)O)cn(CCF)c3c2F)CC1 [Fleroxacin],1 Adults
5,CCC1(c2cccc(O)c2)CCCCN(C)C1 (stereo not shown) [Meptazinol Hydrochloride],1 Adult Normal Wing Adults
6,C1N2CN3CN1CN(C2)C3 [Methenamine],1 Adults
7,CN(Cc1cc(Br)cc(Br)c1N)C1CCCCC1.Cl [Romhexine Hydrochloride],1/2 Adult Normal Wings
8,Cn1c([N+](=O)[O-])cnc1COC(N)=O [Ronidazole],1 Adult Normal Wings Adults
9,CCCC(CCC)C(=O)O [Valproic Acid],1 Adults
10,O=C(NCCNCC(O)COc1ccc(O)cc1)N1CCOCC1.O=C(NCCNCC(O)COc1ccc(O)cc1)N1CCOCC1.O=C(O)/C=C/C(=O)O (stereo not shown) [Xamoterol HemifiμMarate],1 Adult Normal Wing Adults

# Same assay, conditions: transgene G298S; 50 μM in fly food
row,Molecule,Preliminary rescue result: adults with normal wings
1,NCCCNCCSP(=O)(O)O [Amifostine],1 Adult Normal Wings Adults
2,CN(C)CCC=C1c2ccccc2CCc2ccccc21.Cl [Amitryptiline Hydrochloride],1 Adult Normal Wings Adults
3,C[C@H](CCC(=O)O)[C@H]1CC[C@H]2[C@@H]3[C@H](O)C[C@@H]4C[C@H](O)CC[C@]4(C)[C@H]3CC[C@]12C [Chenodiol],1 Adult Normal Wings Adults
4,CN1CCN(C2=Nc3cc(Cl)ccc3Nc3ccccc32)CC1 [Clozapine],1 Adult Normal Wings Adults
5,CCN(CC)C(=O)/C(C#N)=C/c1cc(O)c(O)c([N+](=O)[O-])c1 [Entacapone],5 Adult Normal Wings Adults
6,O=C(O)c1ccccc1Nc1cccc(C(F)(F)F)c1 [Flufenamic Acid],1 Adult Normal Wings Adults
7,COc1ccc(-c2ccc(=N)n(CCCC(=O)O)n2)cc1 [Gabazine],2 Adults Straight Wings
8,COc1cc2ncnc(Nc3ccc(F)c(Cl)c3)c2cc1OCCCN1CCOCC1 [Gefitinib],1 Adult Normal Wings Adults
9,C[N+]1(C)CCOC(O)(c2ccc(-c3ccc(C4(O)C[N+](C)(C)CCO4)cc3)cc2)C1.[Br-].[Br-] (stereo not shown) [Hemicholinium Bromide],1 Adult Normal Wings Adults
10,CCOC(=O)C1=C(C)NC(C)=C(C(=O)OCC)C1c1ccccc1/C=C/C(=O)OC(C)(C)C [Lacidipine],7 Adults
11,Nc1ccn([C@@H]2CS[C@H](CO)O2)c(=O)n1 [Lamivudine],2 Adults Normal Wings
12,C[N+]1(C)CCCC(OC(=O)C(O)(c2ccccc2)c2ccccc2)C1 (stereo not shown) [Mepenzolate Bromide],2 Adult Normal Wings Adults
13,Cc1ccccc1C(OCCN(C)C)c1ccccc1 (stereo not shown) [Orphenadrine],1 Adult Normal Wings Adults
14,CN(C)CCC(c1ccccc1)c1ccccn1 (stereo not shown) [Pheniramine Maleate],1 Adult Normal Wings Adults
15,CCCN(CCC)C(=O)C(CCC(=O)O)NC(=O)c1ccccc1 (stereo not shown) [Proglumide],3 Adults Normal Wings
16,O=c1n(CCCN2CCN(c3cccc(Cl)c3)CC2)nc2ccccn12 [Trazodone],1 Adult Normal Wings Adults
17,COc1ccc(C(CN(C)C)C2(O)CCCCC2)cc1 (stereo not shown) [Venlafaxine],1 Adult Normal Wings Adults
18,Pyrantel Tartrate,1 Adult Normal Wings Adults

# Test system: Drosophila larvae expressing D169G TDP-43 in motor neurons
# Test: Drug screen: rescue of lethality caused by D169G TDP-43 expression in motor neurons (D42 Gal4)
# Type: in vivo
# Conditions: transgene D169G; 50 μM in fly food
# Description: 1200 FDA approved drugs from the Prestwick collection were fed to flies expressing TDP-43 at an initial concentration of 50 μM (as previously described in Chang et al., 2008).
# FDA approved drugs from the Prestwick collection (200 mM in DMSO) are mixed with yeast-cornmeal based food and a bromophenol blue (as a mixing indicator) at a final concentration of 50 μM. Larvae expressing TDP-43 (wild type or mutant, as shown) are raised on drug containing food.
# FDA approved drugs from the Prestwick collection (200 mM in DMSO) were mixed with yeast-cornmeal based food and a bromophenol blue (as a mixing indicator) at a final concentration of 50 μM. Larvae expressing TDP-43 (wt or mutant) were raised on drug containing food.
# as §3
row,Molecule,Preliminary rescue result: adults with normal wings
1,CC(=O)NCCCS(=O)(=O)[O-].CC(=O)NCCCS(=O)(=O)[O-].[Ca+2] [Acamprosate Calcium],1 Adult Normal Wings Adults
2,Oc1c(Cl)cc(Cl)c2cccnc12 [Chloroxine],1 Adult Normal Wings Adults
3,CCOC(=O)C(C)(C)Oc1ccc(Cl)cc1 [Clofibrate],1 Adult Normal Wings Adults
4,CN(C)CCC=C1c2ccccc2C=Cc2ccccc21 [Cyclobenzaprine HCl],1 Adult Normal Wings Adults

# Test system: Drosophila larvae expressing wild-type TDP-43 in motor neurons
# Test: Drug screen: rescue of lethality caused by wild-type TDP-43 expression in motor neurons (D42 Gal4)
# Type: in vivo
# Conditions: transgene WT2; 30 μM in fly food
# Description: as §1, §2
# Using a Drosophila model of ALS based on TDP-43 that recapitulates several aspects of the disease pathophysiology (33, 35), a drug screen aimed at identifying FDA approved compounds with neuroprotective potential in vivo were designed (FIG. 37A). […] This phenotype was used to screen for drug candidates with therapeutic potential as determined by their ability to rescue pupal lethality and produce viable adults with extended wings (FIG. 37A). […]
# as §4
row,Molecule,Preliminary rescue result: adults with normal wings
1,N#CC(c1ccc(Cl)cc1)c1c(Cl)cc(-n2ncc(=O)[nH]c2=O)cc1Cl (stereo not shown) [Diclazuril],2 Adults
2,CN1CCN(c2c(F)cc3c(=O)c(C(=O)O)cn(CCF)c3c2F)CC1 [Fleroxacin],3 Adults
3,C1N2CN3CN1CN(C2)C3 [Methenamine],2 Adults
4,COc1cc2nc(N3CCN(C(=O)C4CCCO4)CC3)nc(N)c2cc1OC.Cl (stereo not shown) [Terazosin HC1],3 Adult Normal Wings Adults
5,CC1(C)S[C@@H]2[C@H](NC(=O)[C@H](C(=O)[O-])c3ccsc3)C(=O)N2[C@H]1C(=O)[O-].[Na+].[Na+] [Ticarcillin Sodiim],1 Adult Normal Wings Adults
6,CN(C)CCOc1ccc(/C(=C(/CCCl)c2ccccc2)c2ccccc2)cc1 [Toremifene],1 Adult Normal Wings Adults
7,CCCCNc1c(C(=O)OCC)c(C)nc2c1cnn2CC [Tracazolate Hydrochloride],1 Adult Normal Wings Adults
8,COc1ccccc1N1CCN(CCCNc2cc(=O)n(C)c(=O)n2C)CC1 [Urapidil Hydrochloride],1 Adult Normal Wings Adults
9,C[C@H](CCC(=O)O)[C@H]1CC[C@H]2[C@@H]3[C@@H](O)C[C@@H]4C[C@H](O)CC[C@]4(C)[C@H]3CC[C@]12C [Urosiol],2 Adult Normal Wings Adults
10,CCCC(CCC)C(=O)O [Valproic Acid],2 Adults
11,COc1cc(-c2ccc(=O)[nH]n2)ccc1OC(F)F [Zardaverine],1 Adult Normal Wings Adults
12,Cc1cc(CC(=O)[O-])n(C)c1C(=O)c1ccc(Cl)cc1.O.O.[Na+] [Zomepirac Na Salt],3 Adult Normal Wings Adults
13,CCCc1nc2c(C)cc(-c3nc4ccccc4n3C)cc2n1Cc1ccc(-c2ccccc2C(=O)O)cc1 [′Telmisartan],2/2 Adult Normal Wings
14,Carbinoxamine Maleate Salt,1 Adult Normal Wings Adults
15,Verteporfin,1 Adult Normal Wings Adults

# Same assay, conditions: transgene WT2; 50 μM in fly food
row,Molecule,Preliminary rescue result: adults with normal wings
1,COc1ccc(-c2ccc(=N)n(CCCC(=O)O)n2)cc1 [Gabazine],"4 Adults Normal Wings,"
2,CCOC(=O)C1=C(C)NC(C)=C(C(=O)OCC)C1c1ccccc1/C=C/C(=O)OC(C)(C)C [Lacidipine],3 Adults
3,CCCN(CCC)C(=O)C(CCC(=O)O)NC(=O)c1ccccc1 (stereo not shown) [Proglumide],"1 Adult Normal Wings, Adults"
4,CCCCCCCCNC(C)C(O)c1ccc(SC(C)C)cc1 (stereo not shown) [Suloctidil],6 Adults Normal Wings
5,CCN1CCCC1CNC(=O)c1cc(S(N)(=O)=O)ccc1OC (stereo not shown) [Sulpiride],1 Adult Normal Wings Adults
6,Nc1c2c(nc3ccccc13)CCCC2 [Tacrine Hydrochloride Hydrate],4 Adults Normal Wings
7,NC1CCN(c2nc3c(cc2F)c(=O)c(C(=O)O)cn3-c2ccc(F)cc2F)C1 (stereo not shown) [Tosufloxacin Hydrochloride],3 Adult Normal Wings Adults
8,CCCc1nc(C)c2c(=O)[nH]c(-c3cc(S(=O)(=O)N4CCN(CC)CC4)ccc3OCC)nn12 [Vardenafil],3 Adult Normal Wings Adults
9,CCN(C(C)=O)c1cccc(-c2ccnc3c(C#N)cnn23)c1 [Zaleplon],1 Adult Normal Wings Adults
10,Thioproperazine Dimesylate,1 Adult Normal Wings Adults
